One test concerns rat thoracic aorta. The test can be described thus: Relaxation of pre-contracted rat thoracic aorta (myograph). The settings on record: for EC50: pre-contracted rat thoracic aorta, read-out: EC50 blood vessel relaxation. The protocol:
FIG. 16 is a series of graphs showing the vasodilatory and tissue protective effects of MitoSNAP. (a) Dose-response curves for the effect of MitoSNAP and related compounds on blood vessel relaxation. The effects of intact or decomposed MitoSNAP and SNAP on pre-contracted rat thoracic aorta mounted in a myograph were determined Data represent means±sem. For MitoSNAP n=8 from experiments on two independent rat aorta preparations. For decomposed MitoSNAP and SNAP experiments the data (n=4) are from one aorta preparation. (b) EC50 for the effect of MitoSNAP and SNAP on blood vessel relaxation. The EC50 values were determined from experiments shown in (a) above. ***p<0.001 by Student's unpaired t-test. (c & d) MitoSNAP protects against I/R injury in Langendorff-perfused mouse hearts. Hearts from C57BL6 mice were Langendorff perfused and subjected to 25 min global normothermic ischemia followed by 1 h of reperfusion. MitoSNAP or MitoNAP (100 nM final), or vehicle carrier, was added via an infusion port above the aortic cannula during reperfusion. Hearts were then stained with 2,3,5-triphenyltetrazolium chloride (TTC) to visualize infarct. (c) Protection of heart function by MitoSNAP during I/R injury. Left ventricular contractile function was recorded throughout the I/R protocol.
Sprague-Dawley rats (male 250-350 g) were anesthetized by intraperitoneal injection of ketamine and xylazine (100 and 16 mg/kg, respectively) and thoracic aortas were excized and placed in Krebs-Henseleit buffer (pH 7.3) at 37° C. […] The concentrations of MitoSNAP and SNAP were calculated using ε=950 M^−1.cm^−1 and 1168 M^−1.cm^−1 at 340-344 nm respectively in PBS supplemented with 10 μM DTPA.
The uptake of MitoSNAP into mitochondria within vascular tissue and the subsequent NO^• release may make MitoSNAP a potent vasodilator. This was evaluated by determining whether MitoSNAP could relax the smooth muscle in blood vessel walls. […]

Test [1] concerns liver or heart mitochondria. The test can be described thus: Visualisation of S-nitrosated mitochondrial proteins by Cy3 maleimide labelling. The format is biochemical, rat. The settings on record: 10 μM MitoSNAP or 500 μM diamide, 5 min. The protocol: FIG. 11 is a series of graphs showing S-nitrosation of mitochondrial thiols by MitoSNAP. (a) Time course of S-nitrosation of mitochondrial proteins by MitoSNAP. Liver mitochondria (1 mg protein) were incubated in 1 ml KCl buffer supplemented with rotenone and succinate in the presence of 5 μM MitoSNAP. At various times mitochondria were treated with 10 mM N-ethylmaleimide (NEM), isolated by centrifugation and the S-nitrosothiol content assessed. Data are of a typical experiment showing means±range of duplicate samples for each time point, each measured in duplicate. The experiment was repeated twice. (b) S-nitrosation of mitochondrial proteins by different concentrations of MitoSNAP and SNAP. Aliquots of liver mitochondria were incubated with the indicated concentrations of MitoSNAP or SNAP for […] in the presence or absence of 500 nM FCCP and then assessed for S-nitrosothiol content as in (a). […] Data are of a typical experiment showing means±range of duplicate samples for each time point, each measured in duplicate. […] After further incubation for 5 min at 37° C. in the dark, the medium was removed and the content of S-nitrosated proteins was measured. […] S-nitrosated thiols were then selectively tagged with Cy3 maleimide and protein (10 μg) was then separated on a 12.5% SDS PAGE gel which was stained with coomassie blue and scanned for Cy3 fluorescence. […]

This is an account of results in patent publication US9045505B2, “Nitric oxide donors” (University of Otago, priority 2006, dated 2015).

A word on the EC50: it is the concentration giving half of the maximal effect.

Regarding `CC(=O)NC(C(=O)O)C(C)(C)SN=O` (racemic) [SNAP, S-nitroso-N-acetyl-DL-penicillamine, reference compound], the EC50 with rat thoracic aorta is 19.5 nM.

Turning to `CC(=O)NC(C(=O)NCCCCC[P+](c1ccccc1)(c1ccccc1)c1ccccc1)C(C)(C)SN=O.CS(=O)(=O)[O-]` (stereo not shown) [MitoSNAP, [5-(2-acetylamino-3-methyl-3-nitrosothio-butyrylamino)-penty1]-triphenylphosphonium methanesulfonate], in test [1], the “Cy3 labelling of S-nitrosated proteins” value was “S-nitrosation of a large number of different proteins”. The EC50 with rat thoracic aorta is 4.5 nM. The “vasodilator effect after degradation of the SNO moiety” value with rat thoracic aorta (pretreated (light) to degrade SNO) was “ineffective”.
